Reference: US12221425B2, “Process for the preparation of CIC-1 chloride channel inhibitors” (NMD PHARMA A/S, priority 2019, dated 2025)

The compounds below were run against T1, human CIC-1 channels (Homo sapiens, UniProt P35523) (assay: Automated whole cell patch clamp (Qpatch 16) on CHO cells expressing human CIC-1, compound added intracellularly). Conditions: compound in intracellular solution vs vehicle control patches, positive shift reflects CIC-1 inhibition.
T1 construct: host or cells: CHO (Chinese hamster ovary) cells constitutively expressing human ClC-1
Format: cell-based
Description: The investigatory goal of these experiments was to evaluate how compounds affect the open probability and current amplitude of human CIC-1 channels expressed in CHO cells. Experiments were performed using an automated patch clamp system that allowed high throughput testing of whole cell patches together with both intracellular and extracellular addition of compound.
Automated whole cell patch clamp experiments were performed with the Qpatch 16 system (Sophion Bioscience, Ballerup, Denmark) at room temperature. Data acquisition and analysis were performed in the Qassay software (ver. 5.6, Odense).
To evoke CIC-1 currents in whole cell patches, the membrane potential was initially stepped from a holding potential of −30 mV to +60 mV for 100 ms and then to various test voltages (sweeps) ranging from +120 mV to −140 mV in steps of 20 mV for 300 ms. To obtain tail currents, the membrane potential was stepped to −100 mV after each test voltage for 300 ms and then relaxed to −30 mV for 2 sec between sweeps (FIG. 1). I/V relationships for whole cell instant and steady state current amplitudes were obtained by plotting average current densities at the beginning and at the end of the 300 ms step against the membrane potential (FIG. 2).
In order to determine the relative overall open probability (P0), the instantaneous tail currents were normalized to the maximal tail current obtained following the most positive voltage step and plotted against the test voltage. Plots of normalized tail currents from each whole cell patch were then fitted to a Boltzmann function allowing determination of half activation voltages (V1/2, FIG. 3).
For automated patch clamp experiments extracellular solutions contained: 2 mM CaCl2, 1 mM MgCl2, 10 mM HEPES, 4 mM KCl, 145 mM NaCl, 10 mM Glucose, pH adjusted to 7.4 with NaOH (2 M). Osmolality adjusted to ˜320 using sucrose.
Intracellular solutions contained: 80 mM CsF, 60 mM CsCl, 5/1 mM KOH/EGTA, 10 mM HEPES, 10 mM NaCl, pH adjusted to 7.2 with NaOH (2 M). Osmolality adjusted to ˜320 mOsm using sucrose.
Cells used in patch clamp experiments were Chinese hamster ovary cells (CHO) constitutively expressing human CIC-1 channels. The amino acid sequence encoded by the cDNA used to create this cell line was identical to the translated sequence for GenBank accession number NM_000083.2. Cells were produced by Charles River (Catalogue CT6175, Cleveland OH, USA) in a cryopreserved format. Experiments were performed on the cells directly after thawing (3×10^6 cells used in each experiment).
To evaluate the compound effect on CIC-1, when applied directly to the intracellular side of the cell membrane, the half activation voltage, V1/2, was determined from whole cell patches with compound added to the intracellular solution and then compared to V1/2 determined from control cell patches with only vehicle added to the intracellular solution. Additionally, the effect of extracellular added compound was evaluated by determine V1/2 and steady state current amplitudes before and after exchanging the extracellular solution to contain compound.
The difference in half activation voltage of CIC-1 channels, ΔV1/2, was determined as the difference between the cell patches treated intracellularly with compound and control cells patches and is reported in Table 1 below. A positive shift in ΔV1/2 is reflecting CIC-1 channel inhibition by the tested compound. P-values of <0.05 is considered significant.

T1 sequence (P35523 whole entry): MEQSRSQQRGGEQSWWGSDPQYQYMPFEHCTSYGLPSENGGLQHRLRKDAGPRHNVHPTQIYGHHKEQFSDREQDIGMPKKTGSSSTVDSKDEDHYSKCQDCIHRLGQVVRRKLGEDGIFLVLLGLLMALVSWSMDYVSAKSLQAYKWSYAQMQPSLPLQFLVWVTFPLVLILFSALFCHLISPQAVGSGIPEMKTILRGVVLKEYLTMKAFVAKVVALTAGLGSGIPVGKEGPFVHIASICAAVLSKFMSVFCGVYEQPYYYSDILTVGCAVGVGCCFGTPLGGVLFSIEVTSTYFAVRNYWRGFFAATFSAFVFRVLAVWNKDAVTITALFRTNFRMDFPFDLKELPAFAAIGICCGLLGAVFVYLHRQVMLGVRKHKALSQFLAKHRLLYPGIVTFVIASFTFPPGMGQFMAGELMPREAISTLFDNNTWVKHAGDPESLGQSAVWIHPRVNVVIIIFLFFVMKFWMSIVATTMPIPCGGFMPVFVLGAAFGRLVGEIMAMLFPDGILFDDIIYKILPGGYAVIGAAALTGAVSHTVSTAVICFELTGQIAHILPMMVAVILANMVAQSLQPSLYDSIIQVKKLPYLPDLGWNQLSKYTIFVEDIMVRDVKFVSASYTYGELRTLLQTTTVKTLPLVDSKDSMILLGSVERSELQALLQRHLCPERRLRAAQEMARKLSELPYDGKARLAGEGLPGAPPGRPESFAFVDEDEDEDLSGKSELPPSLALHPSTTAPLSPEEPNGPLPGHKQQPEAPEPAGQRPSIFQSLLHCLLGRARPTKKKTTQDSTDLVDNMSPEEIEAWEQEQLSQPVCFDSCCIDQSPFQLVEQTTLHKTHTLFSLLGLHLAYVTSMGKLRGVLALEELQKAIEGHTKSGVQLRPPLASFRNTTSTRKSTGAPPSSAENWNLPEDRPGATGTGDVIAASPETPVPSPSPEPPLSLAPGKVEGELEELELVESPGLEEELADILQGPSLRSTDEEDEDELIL

Compared with `O=C(O)COc1ccc(Br)cc1-c1ccon1` [2-[4-bromo-2-(1,2-oxazol-3-yl)phenoxy]acetic acid], `C[C@H](Oc1ccc(Br)cc1-c1ccon1)C(=O)O` [(2S)-2-(4-bromo-2-(isoxazol-3-yl)phenoxy)propanoic acid] is higher in “Shift in half activation voltage, ΔV1/2” value: 11.3 mV for the first, 14.1 mV for the second.

Compared with `C[C@H](Oc1cc(F)c(Br)cc1-c1ccon1)C(=O)O` [(2S)-2-[4-bromo-5-fluoro-2-(1,2-oxazol-3-yl)phenoxy]propanoic acid], `C[C@H](Oc1ccc(Cl)cc1-c1ccon1)C(=O)O` [(2S)-2-[4-chloro-2-(1,2-oxazol-3-yl)phenoxy]propanoic acid] is lower in “Shift in half activation voltage, ΔV1/2” value: 17.7 mV for the first, 8.1 mV for the second.

For `CC[C@H](Oc1ccc(Br)cc1-c1ccon1)C(=O)O` [(2S)-2-[4-bromo-2-(1,2-oxazol-3-yl)phenoxy]butanoic acid], the “Shift in half activation voltage, ΔV1/2” value was 7.2 mV.
